PubChem BioAssay (NCI)
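Each compound was tested at five concentrations against cells in 96-well plates for 48 hours. GI50: concentration for 50% inhibition of growth. At the TGI there is no net growth.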

Experiments:
Test in all cases: DTP human tumour cell line panel, 48 h
[1] = tested on: HL-60(TB) leukemia
[2] = tested on: NCI-H23 lung
[3] = tested on: NCI-H226 lung
[4] = tested on: SK-MEL-28 melanoma
[5] = tested on: MALME-3M melanoma
[6] = tested on: HT29 colon
[7] = tested on: MOLT-4 leukemia
[8] = tested on: SN12C renal
[9] = tested on: HCT-116 colon
[10] = tested on: SK-MEL-5 melanoma

COc1cc2c(cc1OCCCCNC(=O)c1cc3ccccc3[nH]1)N=CC1CCCN1C2=O (centres undefined)
GI50 [1]: 7.97 µM | TGI [1]: > 100 µM | GI50 [2]: 28.4 µM | TGI [2]: > 100 µM | GI50 [3]: 30.7 µM | TGI [3]: > 100 µM | GI50 [4]: 37.5 µM | TGI [4]: > 100 µM | GI50 [5]: 20 µM | TGI [5]: 47.7 µM | GI50 [6]: 32.6 µM | TGI [6]: > 100 µM | GI50 [7]: 8.72 µM | TGI [7]: > 100 µM | GI50 [8]: 18.9 µM | TGI [8]: 44.8 µM | GI50 [9]: 35.9 µM | TGI [9]: > 100 µM | GI50 [10]: 5.65 µM | TGI [10]: 23.9 µM

CCOC(=O)C1=C(Nc2ccccc2)OC/C1=N\NC(=O)Cc1ccccc1
TGI [1]: > 50 µM | TGI [2]: > 50 µM | TGI [3]: > 50 µM | TGI [4]: > 50 µM | TGI [5]: > 50 µM | TGI [6]: > 50 µM | TGI [7]: > 50 µM | TGI [8]: > 50 µM | TGI [9]: > 50 µM | TGI [10]: > 50 µM

CCOP(=O)(CCP(=O)(OCC)OCC)OCC.C[CH2][Sn]([Cl])([Cl])[CH2]C
GI50 [1]: 56.6 µM | TGI [1]: > 95.2 µM | GI50 [2]: 19.9 µM | TGI [2]: 49 µM | GI50 [3]: 20.3 µM | TGI [3]: 42.7 µM | GI50 [4]: 35.6 µM | TGI [4]: > 61.9 µM | GI50 [5]: 15.3 µM | TGI [5]: 30.6 µM | GI50 [6]: 62.7 µM | TGI [6]: > 93.6 µM | GI50 [7]: 39.9 µM | TGI [7]: > 100 µM | GI50 [8]: 48.1 µM | TGI [8]: > 69.8 µM | GI50 [9]: > 67.3 µM | TGI [9]: > 100 µM | GI50 [10]: 36.4 µM | TGI [10]: > 86.7 µM

C[N+](C)(C)CCOP(=O)(O)OP(=O)([O-])OCC1CCC(n2ccc(N)nc2=O)O1 (centres undefined)
TGI [1]: > 100 µM | TGI [2]: > 100 µM | TGI [3]: > 100 µM | TGI [4]: > 100 µM | TGI [5]: > 100 µM | TGI [6]: > 100 µM | TGI [7]: > 100 µM | TGI [8]: > 100 µM | TGI [9]: > 100 µM | TGI [10]: > 100 µM

Cc1c2ccccc2c(C)c2c3c(ccc12)C(=O)C=CC3=O
TGI [1]: 5.3 µM | TGI [2]: > 85.4 µM | TGI [3]: > 100 µM | TGI [4]: > 57.1 µM | TGI [5]: > 79.2 µM | TGI [6]: > 65.8 µM | TGI [7]: 6.78 µM | TGI [8]: > 69.1 µM | TGI [9]: 49.7 µM | TGI [10]: > 79.3 µM

CC(C)=CC/C=C(/C)[C@H]1CC[C@]2(C)[C@@H]1CC[C@@H]1[C@@]3(C)CCC(=O)NC(C)(C)[C@@H]3CC[C@]12C
GI50 [1]: 18.2 µM | TGI [1]: 49.3 µM | GI50 [2]: 18.3 µM | TGI [2]: 45.7 µM | GI50 [3]: 19.1 µM | TGI [3]: 43.1 µM | GI50 [4]: 16.7 µM | TGI [4]: 31.6 µM | GI50 [5]: 16 µM | TGI [5]: 30.8 µM | GI50 [6]: 20.4 µM | TGI [6]: 72.3 µM | GI50 [7]: 15.4 µM | TGI [7]: 49.6 µM | GI50 [8]: 16.1 µM | TGI [8]: 33.8 µM | GI50 [9]: 15 µM | TGI [9]: 34.5 µM | GI50 [10]: 13.3 µM | TGI [10]: 26.4 µM

CCN1CCC[C@H]1c1cc(O)c2c(c1OC)C[C@H]1C[C@H]3[C@H](N)C(=O)C(C(N)=O)=C(O)[C@@]3(O)C(=O)C1=C2O
GI50 [1]: 0.0379 µM | TGI [1]: 0.238 µM | GI50 [2]: 0.167 µM | TGI [2]: 2.18 µM | GI50 [3]: 0.216 µM | TGI [3]: 3.96 µM | GI50 [4]: 0.0668 µM | TGI [4]: 1.26 µM | GI50 [5]: 0.0423 µM | TGI [5]: 0.689 µM | GI50 [6]: 0.112 µM | TGI [6]: 5.43 µM | GI50 [7]: 0.0587 µM | TGI [7]: 0.666 µM | GI50 [8]: 0.0682 µM | TGI [8]: 1.5 µM | GI50 [9]: 0.0456 µM | TGI [9]: 1.96 µM | GI50 [10]: 0.0797 µM | TGI [10]: 0.951 µM

Fc1ccc(-c2nc(-c3nc4ccc(Cl)cc4[nH]3)cc3c2[nH]c2ccccc23)cc1
GI50 [1]: 4.32 µM | TGI [1]: 17.8 µM | GI50 [2]: 3.66 µM | TGI [2]: 21.1 µM | GI50 [3]: 3.34 µM | TGI [3]: 15.5 µM | GI50 [4]: 4.25 µM | TGI [4]: 14.9 µM | GI50 [5]: 4.54 µM | TGI [5]: 17.3 µM | GI50 [6]: 4.31 µM | TGI [6]: 12.8 µM | GI50 [7]: 2.48 µM | TGI [7]: 8.37 µM | GI50 [8]: 3.04 µM | TGI [8]: 24.4 µM | GI50 [9]: 3.29 µM | TGI [9]: 12.5 µM | GI50 [10]: 3.52 µM | TGI [10]: 15.4 µM

CN(C)CC(C(=O)c1ccccc1)c1ccccc1 (centres undefined)
GI50 [1]: 3.17 µM | TGI [1]: 8.22 µM | GI50 [2]: 2.95 µM | TGI [2]: 12.7 µM | GI50 [3]: 2.42 µM | TGI [3]: 7.79 µM | GI50 [4]: 4.13 µM | TGI [4]: 13.6 µM | GI50 [5]: 1.69 µM | TGI [5]: 3.62 µM | GI50 [6]: 0.662 µM | TGI [6]: 2.15 µM | GI50 [7]: 4.2 µM | TGI [7]: 31.3 µM | GI50 [8]: 1.57 µM | TGI [8]: 3.35 µM | GI50 [9]: 1.03 µM | TGI [9]: 2.2 µM | GI50 [10]: 1.57 µM | TGI [10]: 3.45 µM

Nc1nc(-c2ccccc2)c(-c2ccccc2)c(-c2nc(N)nc(-c3ccccc3)c2-c2ccccc2)n1
TGI [1]: > 100 µM | TGI [2]: > 100 µM | TGI [3]: > 100 µM | TGI [4]: > 100 µM | TGI [5]: > 100 µM | TGI [6]: > 100 µM | TGI [7]: > 100 µM | TGI [8]: > 100 µM | TGI [9]: > 100 µM | TGI [10]: > 100 µM

COc1cc(/C=C/C(=O)C(=Cc2ccc(F)c(F)c2)C(=O)/C=C/c2ccc(O)c(OC)c2)ccc1O
GI50 [1]: 2.67 µM | TGI [1]: 6.85 µM | GI50 [2]: 2.8 µM | TGI [2]: 8.56 µM | GI50 [3]: 3.39 µM | TGI [3]: 12.1 µM | GI50 [4]: 1.87 µM | TGI [4]: 3.8 µM | GI50 [5]: 5.61 µM | TGI [5]: 37.3 µM | GI50 [6]: 1.72 µM | TGI [6]: 3.63 µM | GI50 [7]: 2.75 µM | TGI [7]: > 100 µM | GI50 [8]: 2.65 µM | TGI [8]: 7.86 µM | GI50 [9]: 1.79 µM | TGI [9]: 4.01 µM | GI50 [10]: 2.18 µM | TGI [10]: 5.3 µM

C=CCN1C(=O)/C(=c2\sc3n(c2=O)C2C(NN=3)N(CC)C(=O)N2CC)c2ccccc21 (centres undefined)
GI50 [1]: 0.315 µM | TGI [1]: 2.05 µM | GI50 [2]: 0.88 µM | TGI [2]: > 50.7 µM | GI50 [3]: 2.19 µM | TGI [3]: > 100 µM | GI50 [4]: 5.36 µM | TGI [4]: > 100 µM | GI50 [5]: 1.28 µM | TGI [5]: > 100 µM | GI50 [6]: 0.39 µM | GI50 [7]: 1.71 µM | TGI [7]: > 100 µM | GI50 [8]: 0.7 µM | TGI [8]: > 100 µM | GI50 [9]: 0.403 µM | TGI [9]: > 100 µM | GI50 [10]: 0.421 µM | TGI [10]: 2.05 µM

CSC1=Nc2c(c(C)c(-c3ccccc3)n2COC(CO)CO)C2=NC(=O)C(C)N12 (centres undefined)
GI50 [1]: 3.69 µM | TGI [1]: > 100 µM | GI50 [2]: > 100 µM | TGI [2]: > 100 µM | GI50 [3]: > 100 µM | TGI [3]: > 100 µM | GI50 [4]: > 100 µM | TGI [4]: > 100 µM | GI50 [5]: > 100 µM | TGI [5]: > 100 µM | GI50 [6]: > 100 µM | TGI [6]: > 100 µM | GI50 [7]: 29.6 µM | TGI [7]: > 100 µM | GI50 [8]: > 100 µM | TGI [8]: > 100 µM | GI50 [9]: > 100 µM | TGI [9]: > 100 µM | GI50 [10]: > 100 µM | TGI [10]: > 100 µM

O=C(c1cc2ccccc2[nH]1)C(O)(c1cc2ccccc2[nH]1)c1cc2ccccc2[nH]1
TGI [1]: > 246 µM | TGI [2]: > 246 µM | TGI [3]: > 246 µM | TGI [4]: > 246 µM | TGI [5]: > 246 µM | TGI [6]: > 246 µM | TGI [7]: > 246 µM | TGI [8]: > 246 µM | TGI [9]: > 246 µM | TGI [10]: > 246 µM
